Reference: US12509444B2, “Compounds and methods for CD73 modulation and indications therefor” (Plexxikon Inc., priority 2019, dated 2025)

Tests used:
human CD73 = biological target: T1, human CD73 (Homo sapiens, UniProt P21589); assay: Inhibitor activity against CD73 in cell based assay (CD73 expressing CHO-K1 cells); details: CHO-K1 cells expressing human CD73, 150 μM AMP, 4 hours of incubation; read-out: CHO-K1 CELL VARIANT: CD73 IC50
T1 construct: expressed in transfected cells
T1 sequence (P21589 27-549): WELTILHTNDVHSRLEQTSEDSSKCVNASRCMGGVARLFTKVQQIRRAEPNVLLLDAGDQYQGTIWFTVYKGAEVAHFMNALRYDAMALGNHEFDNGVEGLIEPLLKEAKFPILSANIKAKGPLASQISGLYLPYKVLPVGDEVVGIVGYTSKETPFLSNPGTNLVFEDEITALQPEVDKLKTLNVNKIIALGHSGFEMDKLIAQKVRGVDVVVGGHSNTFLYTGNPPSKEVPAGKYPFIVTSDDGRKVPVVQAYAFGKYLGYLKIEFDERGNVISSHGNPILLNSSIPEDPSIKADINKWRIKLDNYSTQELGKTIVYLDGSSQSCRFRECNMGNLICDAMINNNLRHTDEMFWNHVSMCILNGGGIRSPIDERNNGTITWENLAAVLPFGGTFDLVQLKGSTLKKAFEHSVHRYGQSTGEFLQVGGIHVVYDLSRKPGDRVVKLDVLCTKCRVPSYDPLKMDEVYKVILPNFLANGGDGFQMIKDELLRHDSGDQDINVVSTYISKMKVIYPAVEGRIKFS
Outline: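 Residual supernatant AMP was quantified via CellTiter-Glo luminescence (1 μM ATP added, 30 min, room temperature) after a 4 h exposure of human CD73-expressing CHO-K1 cells to 150 μM AMP plus compound, top final 10 μM, 8 points. IC50 came from nonlinear regression of percent inhibition.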

[1] = biological target: T2, Human CD73 (amino acid residues 27-549) (Homo sapiens, UniProt P21589); assay: CD73 enzymatic assay (luciferase-based indirect assay, CellTiter-Glo); assay type: biochemical; details: 0.4 nM CD73, 150 μM AMP, 1 hour at room temperature
T2 construct: Human CD73 (amino acid residues 27-549); His tag (N); made in house; host or cells: E. coli
T2 sequence (P21589 27-549): T1 sequence (P21589 27-549)
Outline: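 Residual AMP inhibits luciferase, so luminescence reports CD73 turnover; read with CellTiter-Glo 2.0 plus 1 μM final ATP, 30 min. Reaction used 0.4 nM N-His CD73 (27-549, E. coli), 150 μM AMP, HEPES pH 7.4 with Tween 20, 1 h at room temperature. IC50 fitted by nonlinear regression.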

| SMILES | IC50 (human CD73) | IC50 [1] |
| --- | --- | --- |
| COc1c(N2CC[C@@H](OC(=O)NC3CCC(F)(F)CC3)C2)cn[nH]c1=O [P-0348, (R)-1-(5-methoxy-6-oxo-1,6-dihydropyridazin-4-yl)pyrrolidin-3-yl (4,4-difluorocyclohexyl)carbamate] | 10 to 100 µM | 0.001 to 10 µM |
| O=C(NC1(C(F)(F)F)CCCC1)O[C@@H]1CCN(c2cn[nH]c(=O)c2Cl)C1 [P-0360, (R)-1-(5-chloro-6-oxo-1,6-dihydropyridazin-4-yl)pyrrolidin-3-yl (1-(trifluoromethyl)cyclopentyl) carbamate] | 0.001 to 10 µM | 0.001 to 10 µM |
| N#CC1(NC(=O)O[C@@H]2CCN(c3cn[nH]c(=O)c3Cl)C2)CCCC1 [P-0361, (R)-1-(5-chloro-6-oxo-1,6-dihydropyridazin-4-yl)pyrrolidin-3-yl (1-cyanocyclopentyl)carbamate] | 0.001 to 10 µM | 0.001 to 10 µM |
| O=C(NC1(c2ccc(F)cc2)CC1)O[C@@H]1CCN(c2cn[nH]c(=O)c2Cl)C1 [P-0362, (R)-1-(5-chloro-6-oxo-1,6-dihydropyridazin-4-yl)pyrrolidin-3-yl (1-(4-fluorophenyl)cyclopropyl) carbamate] | 0.001 to 10 µM | 0.001 to 10 µM |
| C=Cc1c(N2CC[C@@H](OC(=O)NC3CCCC3)C2)cn[nH]c1=O [P-0363, (R)-1-(6-oxo-5-vinyl-1,6-dihydropyridazin-4-yl)pyrrolidin-3-yl cyclopentylcarbamate] | 0.001 to 10 µM | 0.001 to 10 µM |
| O=C(N[C@H]1CC[C@H](NC(=O)c2ccccc2)C1)O[C@@H]1CCN(c2cn[nH]c(=O)c2Cl)C1 [P-0364, (R)-1-(5-chloro-6-oxo-1,6-dihydropyridazin-4-yl)pyrrolidin-3-yl ((1S,3S)-3-benzamidocyclopentyl) carbamate] | 0.001 to 10 µM | 0.001 to 10 µM |
| O=C(N[C@H]1CC[C@H](NS(=O)(=O)c2ccccc2F)C1)O[C@@H]1CCN(c2cn[nH]c(=O)c2Cl)C1 [P-0365, (R)-1-(5-chloro-6-oxo-1,6-dihydropyridazin-4-yl)pyrrolidin-3-yl ((1S,3S)-3-((2-fluorophenyl)sulfonamido)cyclopentyl)carbamate] | 0.001 to 10 µM | 0.001 to 10 µM |
| COc1ccc(S(=O)(=O)C[C@H]2CC[C@H](NC(=O)O[C@@H]3CCN(c4cn[nH]c(=O)c4Cl)C3)CC2)cc1 [P-0366, (R)-1-(5-chloro-6-oxo-1,6-dihydropyridazin-4-yl)pyrrolidin-3-yl ((1r,4R)-4-(((4-methoxyphenyl)sulfonyl)methyl)cyclohexyl)carbamate] | 0.001 to 10 µM | 0.001 to 10 µM |
| O=C(N[C@@H]1CC[C@H]1C(F)(F)F)O[C@@H]1CCN(c2cn[nH]c(=O)c2Cl)C1 [P-0367, (R)-1-(5-chloro-6-oxo-1,6-dihydropyridazin-4-yl)pyrrolidin-3-yl ((1R,2R)-2-(trifluoromethyl)cyclobutyl) carbamate] | 0.001 to 10 µM | 0.001 to 10 µM |
| O=C(N[C@H]1C[C@@](O)(C(F)(F)F)C1)O[C@@H]1CCN(c2cn[nH]c(=O)c2Cl)C1 [P-0368, (R)-1-(5-chloro-6-oxo-1,6-dihydropyridazin-4-yl)pyrrolidin-3-yl ((1r,3r)-3-hydroxy-3-(trifluoromethyl)cyclobutyl)carbamate] | 0.001 to 10 µM | 0.001 to 10 µM |
| O=C(NC1CCN(C(=O)c2ccccc2)CC1)O[C@@H]1CCN(c2cn[nH]c(=O)c2Cl)C1 [P-0369, (R)-1-(5-chloro-6-oxo-1,6-dihydropyridazin-4-yl)pyrrolidin-3-yl (1-benzoylpiperidin-4-yl)carbamate] | 0.001 to 10 µM | 0.001 to 10 µM |

Continued, values first:

| IC50 (human CD73) | IC50 [1] | SMILES |
| --- | --- | --- |
| 0.001 to 10 µM | 0.001 to 10 µM | Cc1ccc(C(=O)N[C@H]2CC[C@H](NC(=O)O[C@@H]3CCN(c4cn[nH]c(=O)c4Cl)C3)CC2)cc1 [P-0344, (R)-1-(5-chloro-6-oxo-1,6-dihydropyridazin-4-yl)pyrrolidin-3-yl ((1r,4R)-4-(4-methylbenzamido)cyclohexyl) carbamate] |
| 0.001 to 10 µM | 0.001 to 10 µM | O=C(Nc1ccc(C(F)(F)F)cc1)N[C@H]1CC[C@H](NC(=O)O[C@@H]2CCN(c3cn[nH]c(=O)c3Cl)C2)CC1 [P-0345, (R)-1-(5-chloro-6-oxo-1,6-dihydropyridazin-4-yl)pyrrolidin-3-yl ((1r,4R)-4-(3-(4-(trifluoromethyl)phenyl)ureido)cyclohexyl)carbamate] |
| 0.001 to 10 µM | 0.001 to 10 µM | O=C(Nc1cccc(C(=O)O)c1)N[C@H]1CC[C@H](NC(=O)O[C@@H]2CCN(c3cn[nH]c(=O)c3Cl)C2)CC1 [P-0346, 3-(3-((1R,4r)-4-(((((R)-1-(5-chloro-6-oxo-1,6-dihydropyridazin-4-yl)pyrrolidin-3-yl)oxy)carbonyl)amino)cyclohexyl)ureido)benzoic acid] |
| 0.001 to 10 µM | 0.001 to 10 µM | O=C(Nc1ccc(C(=O)O)cc1)N[C@H]1CC[C@H](NC(=O)O[C@@H]2CCN(c3cn[nH]c(=O)c3Cl)C2)CC1 [P-0347, 4-(3-((1R,4r)-4-(((((R)-1-(5-chloro-6-oxo-1,6-dihydropyridazin-4-yl)pyrrolidin-3-yl)oxy)carbonyl)amino)cyclohexyl)ureido)benzoic acid] |
| 0.001 to 10 µM | 0.001 to 10 µM | O=C(NC12CCC(CC1)C2)O[C@@H]1CCN(c2cn[nH]c(=O)c2Cl)C1 [P-0349, (R)-1-(5-chloro-6-oxo-1,6-dihydropyridazin-4-yl)pyrrolidin-3-yl bicyclo[2.2.1]heptan-1-ylcarbamate] |
| 0.001 to 10 µM | 0.001 to 10 µM | CC1(C)CCCC1NC(=O)O[C@@H]1CCN(c2cn[nH]c(=O)c2Cl)C1 (stereo partly drawn) [P-0350, (R)-1-(5-chloro-6-oxo-1,6-dihydropyridazin-4-yl)pyrrolidin-3-yl (2,2-dimethylcyclopentyl)carbamate] |
| 0.001 to 10 µM | 0.001 to 10 µM | CC1(C)CC(NC(=O)O[C@@H]2CCN(c3cn[nH]c(=O)c3Cl)C2)C1 [P-0351, (R)-1-(5-chloro-6-oxo-1,6-dihydropyridazin-4-yl)pyrrolidin-3-yl (3,3-dimethylcyclobutyl)carbamate] |
| 0.001 to 10 µM | 0.001 to 10 µM | O=C(N[C@H]1CC[C@@H](Nc2ncccn2)CC1)O[C@@H]1CCN(c2cn[nH]c(=O)c2Cl)C1 [P-0352, (R)-1-(5-chloro-6-oxo-1,6-dihydropyridazin-4-yl)pyrrolidin-3-yl ((1s,4s)-4-(pyrimidin-2-ylamino)cyclohexyl)carbamate] |
| 0.001 to 10 µM | 0.001 to 10 µM | CC(=O)N1CC[C@@H](NC(=O)O[C@@H]2CCN(c3cn[nH]c(=O)c3Cl)C2)C1 [P-0353, (R)-1-(5-chloro-6-oxo-1,6-dihydropyridazin-4-yl)pyrrolidin-3-yl ((R)-1-acetylpyrrolidin-3-yl)carbamate] |
| 0.001 to 10 µM | 0.001 to 10 µM | O=C(N[C@@H]1CCN(C(=O)NC2CCCCC2)C1)O[C@@H]1CCN(c2cn[nH]c(=O)c2Cl)C1 [P-0354, (R)-1-(5-chloro-6-oxo-1,6-dihydropyridazin-4-yl)pyrrolidin-3-yl ((R)-1-(cyclohexylcarbamoyl)pyrrolidin-3-yl)carbamate] |
| 0.001 to 10 µM | 0.001 to 10 µM | CS(=O)(=O)N1CC[C@@H](NC(=O)O[C@@H]2CCN(c3cn[nH]c(=O)c3Cl)C2)C1 [P-0355, (R)-1-(5-chloro-6-oxo-1,6-dihydropyridazin-4-yl)pyrrolidin-3-yl ((R)-1-(methylsulfonyl)pyrrolidin-3-yl)carbamate] |
| 0.001 to 10 µM | 0.001 to 10 µM | CC(C)(O)[C@H]1CC[C@H](NC(=O)O[C@@H]2CCN(c3cn[nH]c(=O)c3Cl)C2)CC1 [P-0356, (R)-1-(5-chloro-6-oxo-1,6-dihydropyridazin-4-yl)pyrrolidin-3-yl ((1r,4R)-4-(2-hydroxypropan-2-yl)cyclohexyl)carbamate] |
| 0.001 to 10 µM | 0.001 to 10 µM | CC1(NC(=O)c2ccccc2)CCC(NC(=O)O[C@@H]2CCN(c3cn[nH]c(=O)c3Cl)C2)CC1 (stereo partly drawn) [P-0357, (R)-1-(5-chloro-6-oxo-1,6-dihydropyridazin-4-yl)pyrrolidin-3-yl (4-benzamido-4-methylcyclohexyl)carbamate] |
| 0.001 to 10 µM | 0.001 to 10 µM | CC1(NS(C)(=O)=O)CCC(NC(=O)O[C@@H]2CCN(c3cn[nH]c(=O)c3Cl)C2)CC1 (stereo partly drawn) [P-0358, (R)-1-(5-chloro-6-oxo-1,6-dihydropyridazin-4-yl)pyrrolidin-3-yl (4-methyl-4-(methylsulfonamido)cyclohexyl)carbamate] |
| 0.001 to 10 µM | 0.001 to 10 µM | O=C(N[C@@H]1CCN(C(=O)c2ccccc2)C1)O[C@@H]1CCN(c2cn[nH]c(=O)c2Cl)C1 [P-0359, (R)-1-(5-chloro-6-oxo-1,6-dihydropyridazin-4-yl)pyrrolidin-3-yl ((R)-1-benzoylpyrrolidin-3-yl)carbamate] |
